Data taken from patent US6271238A, “Acetamide derivatives and protease inhibitors” (Nippon Kayaku Kabushiki Kaisha, priority 1996, dated 2001).
Structures can show the parent of a compound that is named as a salt.

System: guinea pig eosinophils
Test: Inhibitory action on eosinophils (release of active oxygen from guinea pig eosinophils)
Format: cell-based
Details: Cavia porcellus, Eosinophil, 5 min, PAF, luminol chemiluminescence for 5 minutes
Protocol: Inhibitory activity on eosinophil activation
(A) Preparation of eosinophils
Polymyxin B (produced by Sigma) was administered intraperitoneally into a guinea pig (Hartley, male, 6-week-old) at a dosage of 1 mg once every week for 6 to 8 weeks. After the final administration of polymyxin B. 50 ml of PBS (phosphate-buffered saline) was injected into the intraperitoneal cavity of the guinea pig, and cells were recovered. The cells were centrifuged at 800 rpm for 5 minutes and the abdomen infiltration cells were collected as precipitates and then suspended in 1 ml of 40% Ficoll (40% Ficoll (produced by Pharmacia), HBSS (Hanks' balanced salt solution) and layered on a Ficoll discontinuous density gradient (40 to 90%). It was centrifuged at 1500 rpm for 40 minutes, and the eosinophil fraction was recovered. In this operation, eosinophils of 99% or more purity were usually obtained. Further, the cells were washed twice with RPMI 1640 medium (10% BSA (bovine serum albumin available from Boehringer Mannheim), suspended again at a predetermined density, and used in the objective experiment.
(B) Inhibitory action on eosinophils (inhibitory action on release of active oxygen from guinea pig eosinophils)
The eosinophils (99% or more purity) obtained by the Ficoll density gradient method in (A) above were suspended at a cell density of 4×10^5 in a buffer solution (0.136 M sodium chloride, 2.7 mM potassium chloride, 1.8 mM calcium chloride, 1.0 mM magnesium chloride, 11.9 mM sodium hydrogen carbonate, 5.5 mM D-glucose, 5.0 mM HEPES, 0.36 mM sodium dihydrogen phosphate, pH 7.2). Each drug (2 μl) and 180 μl of the cell suspension were put to a 96-well multi-well plate (for chemiluminescence measurement, white type) previously kept at 37° C., and incubated at 37° C. for 10 minutes. After incubation, 20 μl of PAF (platelet-activating factor) (5×10^-6 M) and 20 μl of a luminol solution were added to it and immediately examined for its chemiluminescence (Luminoskan Labosystem). The chemiluminescence for 5 minutes were measured to calculate 50% inhibitory concentration (IC50: μM).

IC50	SMILES
62 µM	CCOC(=O)CCCC(=O)C(=O)C(Cc1cccc(F)c1)NC(=O)Cn1c(-c2ccccc2)ncc(N)c1=O (centres unmarked) [Compound 54]
3 µM	Nc1cnc(-c2ccccc2)n(CC(=O)NC(Cc2ccccc2)C(=O)C(=O)CCCn2ccccc2=O)c1=O (centres unmarked) [Compound 73, 2-(5-Amino-6-oxo-2-phenyl-1,6-dihydropyrimidine-1-yl)-N-{2,3-dioxo-1-phenylmethyl-6-(2-oxo-1,2-dihydropyridine-1-yl)}hexylacetamide hydrochloride]

The next lines start with the compound.

SMILES	IC50
Nc1cnc(-c2ccccc2)n(CC(=O)NC(Cc2ccccc2)C(=O)C(=O)CCCc2ccccc2)c1=O (centres unmarked) [Compound 40]	5.6 µM
CCCCC(=O)C(=O)C(Cc1ccccc1)NC(=O)Cn1c(-c2ccccc2)ncc(N)c1=O (centres unmarked) [Compound 44]	18 µM
CC(=O)C(=O)C(Cc1cccc(F)c1)NC(=O)Cn1c(-c2ccccc2)ncc(N)c1=O (centres unmarked) [Compound 52, 2-(5-Amino-6-oxo-2-phenyl-1,6-dihydropyrimidine-1-yl)-N-{1-(3-fluorophenyl)methyl-2,3-dioxo}butylacetamide]	26 µM
